Experimental data as given in publication PMC4298654, “In vivo formation of N-acyl-fumonisin B1” (Mycotoxin Research, 2014).

Test: In vivo formation of NAFB1 and NAHFB1 in rat kidney and liver (HPLC-ESI-MS/MS)
Set-up: N-acyl-derivative in tissue sample, analysis a / N-acyl-derivative in tissue sample, analysis b / N-acyl-derivative in tissue sample, mean: unit not given here
Details: 5 days
Description: The study protocol was approved by the Institutional Animal Care and Use Committee, Richard B. Russell Agricultural Research Center, Athens, GA. Male Sprague–Dawley rats (Harlan Industries, Indianapolis, IN, USA), 7 weeks of age at receipt, were individually housed in stainless steel, wire mesh cages in an environmentally controlled room having a 12-h light/dark cycle. Food (2019 Global Rodent Diet, Teklad, Madison, WI, USA) and fresh tap water were provided ad libitum. After a 1 week acclimation period, the animals were randomly assigned to five groups (n = 2/group) having mean weights of 215 to 216 g (weight range of all animals, 211 to 220 g). For five consecutive days, they were observed, weighed, and given an intraperitoneal injection (ip) of 0 (vehicle), 0.5, 1.0, or 2.0 mg/kg body weight FB1 (provided by R. Eppley, US FDA), 1.0 mg/kg body weight HFB1 (positive control) (Voss et al. [2009]), or vehicle (0.9 % physiological saline). These doses corresponded to 0.69, 1.38, and 2.77 μmol FB1/kg body weight and 2.47 μmol/kg body weight HFB1 per day. In order to compare the effects of FB1 and HFB1, dosages will be expressed as molar concentrations and, on this basis, the high dose of FB1 is roughly equivalent to that of the positive control dose of HFB1. Dosing solutions were sterile filtered and administered at a volume rate of 10 ml/kg body weight. The animals were fasted overnight prior to administration of the final dose. The rats were euthanized (CO2 inhalation and exsanguination) 60 to 90 min following the final dose administration and examined by necropsy. The kidney and liver specimens were fixed in 10 % neutral buffered formalin, processed, and microscopically evaluated without knowledge of the animal’s identity or treatment group. Three representative liver and kidney specimens (100 mg each) were also collected, immediately frozen, and stored (−80 °C) until processed, at which time the tissues were thawed and homogenized in distilled/deionized water (1 ml water/100 mg tissue). The homogenates were lyophilized before they were shipped by overnight courier for the analysis of fumonisin metabolites and sphingolipids.
Lyophilized liver and kidney tissues (100 mg wet weight equivalents) were processed for the quantification of FB1, HFB1, NAFB1, NAHFB1, and sphingolipids. Preparation of the tissue samples was performed according to a previously published method (Harrer et al. [2013]). For the quantification of FB1 and HFB1, a d6-labeled derivative of FB1 (FB1-d6) was used as the internal standard. Synthetic derivatives with a heptadecanoic fatty acid (C17:0) residue were used as internal standards for the quantification of N-acyl-fumonisins and ceramides (N-C17:0-FB1, N-C17:0-HFB1, and N-C17:0-ceramide). The sphingoid bases and their phosphate derivatives were quantified using synthetic derivatives with a C17-acyl-backbone: sphingosine (C17:1), sphingosine-1-phosphate (C17:1), sphinganine (C17:0), sphinganine-1-phosphate (C17:0) as internal standards. The standards were dissolved in methanol:chloroform (2:1, v/v) and then mixed with the tissue samples. The samples spiked with internal standard were kept at room temperature for 30 min before being processed further. The internal standard-spiked samples were first extracted with ethyl acetate, isopropanol, and water (60:30:10, v/v/v) and a second time using methanol, chloroform, and water (60:30:10, v/v/v). The extracts were combined, the solvents removed by evaporation, and the dried samples stored at−80 °C till analyzed.
For the analysis, the samples were reconstituted in a mixture of water, methanol, and tetrahydrofurane (60:24:16, v/v/v). The NAFB1 and NAHFB1 derivatives having the following fatty acyl chain lengths were quantified by HPLC-MS/MS: C16:0, C18:0, C20:0, C22:0, C24:0, C26:0. Furthermore, we also quantified the unsaturated derivatives C24:1 and C26:1. The results are given as the sum of all N-acyl derivatives of FB1 or HFB1. […]

[1] = Kidney, treatment FB1 0,5 mg/kg BW ip
[2] = Kidney, treatment FB1 1 mg/kg BW ip
[3] = Kidney, treatment FB1 2 mg/kg BW ip
[4] = Kidney, treatment HFB1 1 mg/kg BW ip
[5] = Liver, treatment FB1 0,5 mg/kg BW ip
[6] = Liver, treatment FB1 1 mg/kg BW ip
[7] = Liver, treatment FB1 2 mg/kg BW ip
[8] = Liver, treatment HFB1 1 mg/kg BW ip

Row | SMILES | N-acyl-derivative in tissue sample, analysis a [2] | N-acyl-derivative in tissue sample, analysis b [2] | N-acyl-derivative in tissue sample, mean [2] | N-acyl-derivative in tissue sample, analysis a [3] | N-acyl-derivative in tissue sample, analysis b [3] | N-acyl-derivative in tissue sample, mean [3] | N-acyl-derivative in tissue sample, analysis a [4] | N-acyl-derivative in tissue sample, analysis b [4] | N-acyl-derivative in tissue sample, mean [4] | N-acyl-derivative in tissue sample, analysis a [5] | N-acyl-derivative in tissue sample, analysis b [5] | N-acyl-derivative in tissue sample, mean [5] | N-acyl-derivative in tissue sample, analysis a [6] | N-acyl-derivative in tissue sample, analysis b [6] | N-acyl-derivative in tissue sample, mean [6] | N-acyl-derivative in tissue sample, analysis a [7] | N-acyl-derivative in tissue sample, analysis b [7] | N-acyl-derivative in tissue sample, mean [7] | N-acyl-derivative in tissue sample, analysis a [8] | N-acyl-derivative in tissue sample, analysis b [8] | further results
1 | CCCCCCCCCCCCCCCCCCCCCC(=O)N[C@@H](C)[C@@H](O)C[C@H](O)CCCC[C@@H](O)C[C@H](C)C[C@H](O)[C@H](O)[C@H](C)CCCC [HFB1C22:0] | 0,0 | 0,0 | 0,0 | 0,0 | 0,0 | 0,0 | 1,5 | 4,3 | 2,9 | 0,0 | 0,0 | 0,0 | 0,0 | 0,0 | 0,0 | 0,0 | 0,0 | 0,0 | 61,0 | 45,8 | N-acyl-derivative in tissue sample, analysis a [1]: 0,0; N-acyl-derivative in tissue sample, analysis b [1]: 0,0; N-acyl-derivative in tissue sample, mean [1]: 0,0; N-acyl-derivative in tissue sample, mean [8]: 53,4
2 | CCCCCCCCCCCCCCCCCCCCCCCC(=O)N[C@@H](C)[C@@H](O)C[C@H](O)CCCC[C@@H](O)C[C@H](C)C[C@H](O)[C@H](O)[C@H](C)CCCC [HFB1C24:0] | 0,0 | 0,0 | 0,0 | 0,0 | 0,0 | 0,0 | 3,0 | 2,7 | 2,9 | 0,0 | 0,0 | 0,0 | 0,0 | 0,0 | 0,0 | 0,0 | 0,0 | 0,0 | 25,0 | 23,5 | N-acyl-derivative in tissue sample, mean [8]: 24,2
3 | CCCCCCCC/C=C\CCCCCCCCCCCCCC(=O)N[C@@H](C)[C@@H](O)C[C@H](O)CCCC[C@@H](O)C[C@H](C)C[C@H](O)[C@H](O)[C@H](C)CCCC [HFB1C24:1] | 0,4 | 0,0 | 0,2 | 0,1 | 0,0 | 0,0 | 7,9 | 10,8 | 9,3 | 0,0 | 0,0 | 0,0 | 0,0 | 0,1 | 0,1 | 0,4 | 0,0 | 0,2 | 156,0 | 140,5 | N-acyl-derivative in tissue sample, analysis a [1]: 0,0; N-acyl-derivative in tissue sample, analysis b [1]: 0,0; N-acyl-derivative in tissue sample, mean [1]: 0,0; N-acyl-derivative in tissue sample, mean [8]: 148,3
